Legend:
LdtMab4 = target: T1, LdtMab4 (Mycobacteroides abscessus, UniProt B1MKW1); assay: timed ESI-MS of intact protein, +[…] Da carbamoyl-enzyme adduct after […] h; format: binding
T1 construct: gene MAB_4537c
T1 sequence (B1MKW1 42-333): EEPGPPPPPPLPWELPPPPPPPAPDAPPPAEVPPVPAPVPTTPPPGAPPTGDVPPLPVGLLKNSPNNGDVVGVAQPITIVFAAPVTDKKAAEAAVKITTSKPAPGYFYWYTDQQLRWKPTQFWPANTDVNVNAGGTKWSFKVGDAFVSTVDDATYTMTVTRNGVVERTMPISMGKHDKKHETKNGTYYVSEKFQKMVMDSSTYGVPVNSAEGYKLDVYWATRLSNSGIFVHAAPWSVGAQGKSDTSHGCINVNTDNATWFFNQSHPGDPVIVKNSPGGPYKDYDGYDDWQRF

BlaMab = target: T2, BlaMab (Mycobacteroides abscessus, UniProt B1MCI3); assay: nitrocefin competition kinetics with purified enzyme; ESI-MS carbamoyl-enzyme adduct (+[…] Da); Kd = koff/(k2/K); format: biochemical
T2 construct: gene MAB_2875

LdtMab2 = target: T3, LdtMab2 (Mycobacteroides abscessus, UniProt B1MMQ4); assay: timed ESI-MS of intact protein, +[…] Da carbamoyl-enzyme adduct after […] h; format: binding
T3 construct: gene MAB_1530
T3 sequence (B1MMQ4 42-406): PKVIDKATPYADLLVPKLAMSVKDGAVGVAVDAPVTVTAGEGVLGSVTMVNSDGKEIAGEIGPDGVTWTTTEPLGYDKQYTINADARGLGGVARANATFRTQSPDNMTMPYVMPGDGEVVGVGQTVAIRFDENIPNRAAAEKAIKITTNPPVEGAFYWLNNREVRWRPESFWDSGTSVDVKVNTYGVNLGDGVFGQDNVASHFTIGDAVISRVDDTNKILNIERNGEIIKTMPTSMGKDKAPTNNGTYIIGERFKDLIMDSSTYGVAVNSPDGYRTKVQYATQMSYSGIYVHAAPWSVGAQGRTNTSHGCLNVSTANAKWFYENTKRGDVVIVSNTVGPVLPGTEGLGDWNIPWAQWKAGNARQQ

[1] = test system: O=C(Cc1cccs1)N[C@@H]1C(=O)N2C(C(=O)O)=C(/C=C/c3ccc([N+](=O)[O-])cc3[N+](=O)[O-])CS[C@H]12; assay: purified protein; format: biochemical, Mycobacteroides abscessus

Compound | timed ESI-MS of intact protein, +276 Da carbamoyl-enzyme adduct after 2 h (LdtMab4) | Kd (BlaMab) [nM] | timed ESI-MS of intact protein, +278 Da carbamoyl-enzyme adduct after 2 h (LdtMab2) | Km [1] [µM]
CC1=C[C@@H]2CN(C(=O)N2OS(=O)(=O)O)[C@@H]1C(N)=O [DUR, durlobactam] | DUR formed carbamoyl-enzyme complexes with D,D-c (Fig. 3B), LdtMab2, and LdtMab4 (Fig. 3C and E). | 0.2 ± 0.1 | DUR formed carbamoyl-enzyme complexes with D,D-c (Fig. 3B), LdtMab2, and LdtMab4 (Fig. 3C and E). | –
BlaMab (Mycobacteroides abscessus ATCC 19977) | – | – | – | 22

Source: paper PMC8787486 (mBio, 2022)
